These results are taken from ChEMBL document CHEMBL1201862, “PubChem BioAssay data set” (2004).

The target in one assay is T1, Protein skinhead-1 (Caenorhabditis elegans, UniProt P34707).
T1 sequence (P34707 whole entry): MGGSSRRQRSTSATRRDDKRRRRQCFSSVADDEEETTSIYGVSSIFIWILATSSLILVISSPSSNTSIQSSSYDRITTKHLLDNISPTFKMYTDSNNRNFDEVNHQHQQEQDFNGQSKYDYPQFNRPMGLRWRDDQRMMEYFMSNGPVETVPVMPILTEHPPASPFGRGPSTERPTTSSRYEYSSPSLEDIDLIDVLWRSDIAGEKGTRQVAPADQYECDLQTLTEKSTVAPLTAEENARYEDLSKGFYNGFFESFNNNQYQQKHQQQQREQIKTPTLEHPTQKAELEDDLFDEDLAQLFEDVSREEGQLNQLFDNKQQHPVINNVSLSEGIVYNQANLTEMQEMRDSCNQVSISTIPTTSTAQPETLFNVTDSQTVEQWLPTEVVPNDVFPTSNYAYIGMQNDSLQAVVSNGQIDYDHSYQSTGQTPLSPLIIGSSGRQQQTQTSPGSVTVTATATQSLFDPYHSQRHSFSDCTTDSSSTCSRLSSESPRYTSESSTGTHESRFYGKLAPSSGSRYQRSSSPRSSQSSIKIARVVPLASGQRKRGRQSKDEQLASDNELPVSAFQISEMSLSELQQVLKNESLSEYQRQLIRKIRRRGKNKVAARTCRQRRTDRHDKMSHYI
It counts as functional.

The test system of another assay is HeLa. Put plainly: ATP-based viability loss in HeLa cells – cell-based, CellTiter-Glo luminescence, cherry-pick samples, cytotoxicity control for MITF activator project, dose response (AID 540259). The conditions noted are these: Homo sapiens. It counts as functional. On the technique in general: Cellular ATP, detected with luciferase, serves as a proxy for viable cell number.

Another assay has as its system Escherichia coli. The assay is described as follows: microbe, parasite or virus in culture.
The target in assay [1] is T2, Dual specificity protein phosphatase 6 (Rattus norvegicus, UniProt Q64346).
T2 sequence (Q64346 whole entry): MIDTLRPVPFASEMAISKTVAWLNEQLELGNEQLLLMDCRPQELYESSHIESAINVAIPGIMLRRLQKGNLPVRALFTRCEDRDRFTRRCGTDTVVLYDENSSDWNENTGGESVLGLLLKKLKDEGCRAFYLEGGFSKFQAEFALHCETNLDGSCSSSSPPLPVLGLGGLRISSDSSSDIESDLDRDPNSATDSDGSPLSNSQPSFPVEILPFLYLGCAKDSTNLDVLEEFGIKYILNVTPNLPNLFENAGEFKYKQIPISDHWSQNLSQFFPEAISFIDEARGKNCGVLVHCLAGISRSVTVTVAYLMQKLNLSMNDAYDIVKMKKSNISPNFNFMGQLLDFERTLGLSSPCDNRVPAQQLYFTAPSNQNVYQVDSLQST
In kind it is functional.

Assay [2] deals with T2, Dual specificity protein phosphatase 6.
In assay [3] the target is T3, Tyrosine-protein phosphatase non-receptor type 7 (Homo sapiens, UniProt P35236).
T3 sequence (P35236 whole entry): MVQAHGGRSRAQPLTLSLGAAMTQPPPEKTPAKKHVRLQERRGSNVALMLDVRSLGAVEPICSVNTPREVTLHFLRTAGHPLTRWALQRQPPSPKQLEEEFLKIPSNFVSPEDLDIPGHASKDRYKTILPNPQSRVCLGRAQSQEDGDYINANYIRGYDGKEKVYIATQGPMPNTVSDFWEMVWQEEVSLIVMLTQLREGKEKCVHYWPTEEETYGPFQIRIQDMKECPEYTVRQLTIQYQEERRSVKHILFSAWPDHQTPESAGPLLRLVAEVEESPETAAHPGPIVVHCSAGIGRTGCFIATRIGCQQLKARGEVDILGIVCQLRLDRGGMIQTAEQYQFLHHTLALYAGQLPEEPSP
It counts as functional.

The target in assay [4] is Glyceraldehyde-3-phosphate dehydrogenase (Homo sapiens, UniProt P04406).
Assay [5] deals with Delta-type opioid receptor (Homo sapiens, UniProt P41143). The assay is described as follows: Counterscreen for agonists of heterodimerization of the mu 1 (OPRM1) and delta 1 (OPRD1) opioid receptors: Luminescence-based cell-based high throughput dose response assay to identify agonists of OPRD1 homodimerization. [Related pubchem assays (depositor defined):AID504326, AID504355, AID504692, AID504904, AID504905]. In kind it is functional. (In general: A counterscreen serves to expose hits that act by an unwanted route or on another target.)

The target in assay [6] is 5-hydroxytryptamine receptor 5A (Homo sapiens, UniProt P47898). Put plainly: Counterscreen for agonists of OPRM1-OPRD1 heterodimerization: luminescence-based cell-based high throughput dose response assay to identify agonists of 5-hydroxytryptamine (serotonin) 5A receptor (HTR5A). [Related pubchem assays (depositor defined):AID504326, AID504355, AID504692, AID504904, AID504905]. It counts as functional.

The next assay addresses Mu-type opioid receptor (Homo sapiens, UniProt P35372). Put plainly: Counterscreen for agonists of heterodimerization of the mu 1 (OPRM1) and delta 1 (OPRD1) opioid receptors: Luminescence-based cell-based high throughput dose response assay to identify agonists of OPRM1 homodimerization. In kind it is functional.
Assay [7] in a line: general cell-killing toxicity readout – plate reader, dry powder samples, cytotoxicity control for PAX8 inhibitor project, dose response (AID 743021). It counts as functional, cell-based.
The next assay has as its target T4, Hexokinase HKDC1 (Homo sapiens, UniProt Q2TB90).
T4 sequence (Q2TB90 whole entry): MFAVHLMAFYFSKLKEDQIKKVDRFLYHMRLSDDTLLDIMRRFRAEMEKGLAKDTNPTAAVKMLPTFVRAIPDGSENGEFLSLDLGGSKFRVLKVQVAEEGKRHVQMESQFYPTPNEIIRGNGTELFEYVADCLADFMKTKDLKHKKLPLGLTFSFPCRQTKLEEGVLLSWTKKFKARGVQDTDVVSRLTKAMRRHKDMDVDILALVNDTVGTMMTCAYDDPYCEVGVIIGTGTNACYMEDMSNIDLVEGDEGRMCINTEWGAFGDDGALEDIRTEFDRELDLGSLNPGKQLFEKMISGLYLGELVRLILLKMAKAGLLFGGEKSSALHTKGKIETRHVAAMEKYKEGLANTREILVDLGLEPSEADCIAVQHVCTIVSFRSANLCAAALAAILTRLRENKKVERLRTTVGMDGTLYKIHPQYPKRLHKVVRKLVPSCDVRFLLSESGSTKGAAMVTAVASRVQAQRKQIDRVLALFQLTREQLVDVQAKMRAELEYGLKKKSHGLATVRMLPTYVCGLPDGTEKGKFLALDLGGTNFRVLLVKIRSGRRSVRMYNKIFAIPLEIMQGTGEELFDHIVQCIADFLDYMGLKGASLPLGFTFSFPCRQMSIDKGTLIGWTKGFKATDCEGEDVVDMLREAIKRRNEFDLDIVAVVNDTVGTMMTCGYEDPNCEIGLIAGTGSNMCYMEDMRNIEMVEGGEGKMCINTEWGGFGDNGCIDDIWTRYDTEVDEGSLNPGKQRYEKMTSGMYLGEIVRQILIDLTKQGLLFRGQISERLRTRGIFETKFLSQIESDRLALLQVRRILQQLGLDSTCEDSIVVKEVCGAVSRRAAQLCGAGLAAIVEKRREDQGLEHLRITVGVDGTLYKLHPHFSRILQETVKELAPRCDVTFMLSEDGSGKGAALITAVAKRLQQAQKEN
The assay is described as follows: analog inhibition of human HKDC1 activity – biochemical, set 2, SAR follow-up (AID 588355). In kind it is functional.

In assay [8] the target is Melanin-concentrating hormone receptor 1 (Homo sapiens, UniProt Q99705). The assay is described as follows: Fluorescence-based counterscreen for antagonists of the G-protein coupled receptor 7 (GPR7): cell-based high throughput dose response assay to identify antagonists of the melanin-concentrating hormone receptor 1 (MCHR1). It counts as functional.
Assay [9] addresses T5, Neuropeptides B/W receptor type 1 (Homo sapiens, UniProt P48145).
T5 sequence (P48145 whole entry): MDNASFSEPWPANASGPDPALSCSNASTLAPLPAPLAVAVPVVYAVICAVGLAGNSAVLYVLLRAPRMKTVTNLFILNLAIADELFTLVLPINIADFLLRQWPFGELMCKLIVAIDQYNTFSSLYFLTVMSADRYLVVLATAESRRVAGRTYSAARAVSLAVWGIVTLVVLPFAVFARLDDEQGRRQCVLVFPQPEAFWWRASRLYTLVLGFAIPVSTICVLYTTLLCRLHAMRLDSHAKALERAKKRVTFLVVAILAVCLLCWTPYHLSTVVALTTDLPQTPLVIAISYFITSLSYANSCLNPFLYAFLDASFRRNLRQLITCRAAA
The assay is described as follows: Fluorescence-based dose response cell-based high throughput screening assay to identify antagonists of the G-protein coupled receptor 7 (GPR7). [Related pubchem assays: 1952 (Screening assay (GPR7 antagonists).), 1880 (Summary AID.)]. In kind it is functional.

For a further assay, the target named is T6, Hexokinase-1 (Homo sapiens, UniProt P19367).
T6 sequence (P19367 whole entry): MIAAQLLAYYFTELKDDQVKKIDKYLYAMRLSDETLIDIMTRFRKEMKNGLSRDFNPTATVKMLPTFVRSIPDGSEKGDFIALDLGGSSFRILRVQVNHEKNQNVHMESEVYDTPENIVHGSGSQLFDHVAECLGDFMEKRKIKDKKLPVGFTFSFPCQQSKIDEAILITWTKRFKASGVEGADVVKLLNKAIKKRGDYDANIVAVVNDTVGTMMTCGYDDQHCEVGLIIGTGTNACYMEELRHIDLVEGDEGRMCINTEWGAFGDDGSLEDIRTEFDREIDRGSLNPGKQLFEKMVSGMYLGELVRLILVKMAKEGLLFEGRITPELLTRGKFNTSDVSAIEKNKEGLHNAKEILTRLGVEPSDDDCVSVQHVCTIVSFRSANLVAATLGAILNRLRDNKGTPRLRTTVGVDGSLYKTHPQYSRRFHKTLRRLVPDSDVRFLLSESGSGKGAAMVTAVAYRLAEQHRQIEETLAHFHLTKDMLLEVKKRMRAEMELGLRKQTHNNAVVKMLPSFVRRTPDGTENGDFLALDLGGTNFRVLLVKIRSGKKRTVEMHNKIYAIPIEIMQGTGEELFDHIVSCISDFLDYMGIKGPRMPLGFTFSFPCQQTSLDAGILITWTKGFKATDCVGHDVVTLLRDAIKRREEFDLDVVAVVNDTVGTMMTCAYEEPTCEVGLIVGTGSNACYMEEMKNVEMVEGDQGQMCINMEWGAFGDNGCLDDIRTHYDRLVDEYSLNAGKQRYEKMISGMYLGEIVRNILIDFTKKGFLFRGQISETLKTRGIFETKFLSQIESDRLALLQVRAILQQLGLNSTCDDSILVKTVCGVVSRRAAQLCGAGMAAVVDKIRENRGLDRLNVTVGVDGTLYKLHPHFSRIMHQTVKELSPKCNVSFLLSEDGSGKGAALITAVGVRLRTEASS
Put plainly: hexokinase 1 activity inhibitors, potency – biochemical, set 2, resazurin fluorescence coupled readout, selectivity assay for HKDC1 inhibitor project, SAR follow-up (AID 588356). It counts as functional.

Assay [10] concerns the target Voltage-gated inwardly rectifying potassium channel KCNH2 (Homo sapiens, UniProt Q12809). The settings on record: Potency.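 Further: confirmatory quantitative high-throughput screen measuring inhibition of hERG channel activity.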

The source made the active and inactive calls. Some results are limits rather than exact numbers.

5-hydroxytryptamine receptor 5A, sequence (P47898 whole entry): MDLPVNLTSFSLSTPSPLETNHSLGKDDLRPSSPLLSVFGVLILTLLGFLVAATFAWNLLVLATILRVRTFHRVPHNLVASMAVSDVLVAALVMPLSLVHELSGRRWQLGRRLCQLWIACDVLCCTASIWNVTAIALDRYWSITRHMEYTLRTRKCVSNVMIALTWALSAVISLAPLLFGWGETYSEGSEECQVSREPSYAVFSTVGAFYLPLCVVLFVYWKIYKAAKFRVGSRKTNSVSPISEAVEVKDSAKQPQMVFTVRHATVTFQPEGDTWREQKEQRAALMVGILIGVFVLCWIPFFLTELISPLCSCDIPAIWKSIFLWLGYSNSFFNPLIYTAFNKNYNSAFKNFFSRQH
Mu-type opioid receptor, sequence (P35372 whole entry): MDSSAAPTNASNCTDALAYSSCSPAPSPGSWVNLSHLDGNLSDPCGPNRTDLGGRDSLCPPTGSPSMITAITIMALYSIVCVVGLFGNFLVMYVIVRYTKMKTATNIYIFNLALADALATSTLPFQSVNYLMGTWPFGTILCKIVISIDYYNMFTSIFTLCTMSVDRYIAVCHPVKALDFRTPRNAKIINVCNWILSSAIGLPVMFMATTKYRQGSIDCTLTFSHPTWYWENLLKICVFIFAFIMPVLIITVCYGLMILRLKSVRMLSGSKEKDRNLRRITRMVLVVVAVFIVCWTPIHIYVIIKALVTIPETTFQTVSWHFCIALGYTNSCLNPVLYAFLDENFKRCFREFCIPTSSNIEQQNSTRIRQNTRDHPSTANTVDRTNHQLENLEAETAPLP
Delta-type opioid receptor, sequence (P41143 whole entry): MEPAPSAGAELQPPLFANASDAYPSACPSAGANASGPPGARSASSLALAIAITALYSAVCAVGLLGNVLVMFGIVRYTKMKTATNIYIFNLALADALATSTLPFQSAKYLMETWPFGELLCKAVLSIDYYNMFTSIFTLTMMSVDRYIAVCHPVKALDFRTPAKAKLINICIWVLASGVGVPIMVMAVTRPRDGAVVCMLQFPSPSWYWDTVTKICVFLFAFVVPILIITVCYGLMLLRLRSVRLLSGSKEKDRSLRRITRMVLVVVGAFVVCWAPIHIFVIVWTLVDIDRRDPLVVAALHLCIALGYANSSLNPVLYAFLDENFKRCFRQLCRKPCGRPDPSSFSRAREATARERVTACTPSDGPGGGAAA
Melanin-concentrating hormone receptor 1, sequence (Q99705 whole entry): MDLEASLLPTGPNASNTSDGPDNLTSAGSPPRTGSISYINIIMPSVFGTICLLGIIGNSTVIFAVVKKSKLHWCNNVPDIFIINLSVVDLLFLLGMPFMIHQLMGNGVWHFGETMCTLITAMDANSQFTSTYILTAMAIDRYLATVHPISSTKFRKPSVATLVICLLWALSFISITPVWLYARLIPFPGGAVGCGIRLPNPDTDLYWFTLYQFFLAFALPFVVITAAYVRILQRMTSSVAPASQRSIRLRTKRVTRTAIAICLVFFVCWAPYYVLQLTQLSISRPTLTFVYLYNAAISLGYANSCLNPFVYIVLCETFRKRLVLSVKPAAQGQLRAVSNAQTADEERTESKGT
Voltage-gated inwardly rectifying potassium channel KCNH2, sequence (Q12809 whole entry): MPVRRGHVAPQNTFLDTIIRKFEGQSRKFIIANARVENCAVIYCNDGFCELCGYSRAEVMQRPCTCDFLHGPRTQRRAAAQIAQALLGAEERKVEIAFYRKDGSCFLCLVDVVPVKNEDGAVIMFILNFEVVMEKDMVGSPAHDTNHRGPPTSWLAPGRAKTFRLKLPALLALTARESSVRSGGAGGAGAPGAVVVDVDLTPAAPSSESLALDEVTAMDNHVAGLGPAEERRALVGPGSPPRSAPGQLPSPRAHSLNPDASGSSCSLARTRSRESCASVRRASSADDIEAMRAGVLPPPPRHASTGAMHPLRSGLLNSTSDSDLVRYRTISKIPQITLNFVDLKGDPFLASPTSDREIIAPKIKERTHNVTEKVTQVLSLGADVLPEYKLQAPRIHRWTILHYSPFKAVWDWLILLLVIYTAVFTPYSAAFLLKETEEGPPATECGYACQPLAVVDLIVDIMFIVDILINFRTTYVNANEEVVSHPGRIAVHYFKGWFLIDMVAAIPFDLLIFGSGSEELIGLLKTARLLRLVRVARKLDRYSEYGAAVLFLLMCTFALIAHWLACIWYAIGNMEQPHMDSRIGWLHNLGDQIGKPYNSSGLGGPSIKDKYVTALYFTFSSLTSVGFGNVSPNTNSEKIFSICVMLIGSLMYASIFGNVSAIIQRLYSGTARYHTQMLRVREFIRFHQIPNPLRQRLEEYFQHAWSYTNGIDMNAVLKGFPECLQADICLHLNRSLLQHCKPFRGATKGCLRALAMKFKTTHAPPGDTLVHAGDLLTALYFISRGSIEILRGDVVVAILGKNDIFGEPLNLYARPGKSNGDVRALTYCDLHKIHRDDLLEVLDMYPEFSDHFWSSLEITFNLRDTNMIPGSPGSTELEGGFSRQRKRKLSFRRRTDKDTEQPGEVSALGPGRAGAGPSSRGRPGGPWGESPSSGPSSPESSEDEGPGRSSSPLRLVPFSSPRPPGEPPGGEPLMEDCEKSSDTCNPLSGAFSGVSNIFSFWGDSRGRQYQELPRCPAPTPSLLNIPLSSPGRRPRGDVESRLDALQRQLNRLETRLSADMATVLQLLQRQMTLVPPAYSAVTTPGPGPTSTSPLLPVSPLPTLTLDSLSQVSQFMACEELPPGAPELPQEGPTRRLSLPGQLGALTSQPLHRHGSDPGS
Glyceraldehyde-3-phosphate dehydrogenase, sequence (P04406 whole entry): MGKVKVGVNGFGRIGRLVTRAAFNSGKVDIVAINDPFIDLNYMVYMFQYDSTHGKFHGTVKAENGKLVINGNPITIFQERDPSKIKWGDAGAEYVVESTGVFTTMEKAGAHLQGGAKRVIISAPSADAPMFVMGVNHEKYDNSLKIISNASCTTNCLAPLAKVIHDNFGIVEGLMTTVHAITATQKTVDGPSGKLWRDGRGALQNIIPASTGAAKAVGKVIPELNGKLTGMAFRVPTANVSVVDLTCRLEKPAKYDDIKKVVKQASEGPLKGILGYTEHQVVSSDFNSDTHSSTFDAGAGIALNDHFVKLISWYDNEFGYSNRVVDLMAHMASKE

Usually IC50 stands for the concentration that inhibits the measured activity by half. What is called AC50 is the midpoint of the concentration-response curve, whichever way the signal moves. Take `COc1ccc(C(=O)NN=C(NS(=O)(=O)c2ccc(C)cc2)c2ccccc2)cc1`: at Protein skinhead-1, the IC50 was > 100 µM (inactive). In the assay with HeLa, the AC50 was 55.4 µM (active).

Turning to `CC(C)OCC(O)CN1CCN(CC(O)COc2ccc3c(c2)OCO3)CC1` (stereo unspecified), in the assay with Escherichia coli, the AC50 is 62.7 µM (active).

Regarding `COc1ccc2cc(-c3nc4ccccc4n3C)c(=O)oc2c1`, in the assay with HeLa, the AC50 was 174 µM (active).

On to `COc1cc(Cl)ccc1OCc1cc(C(=O)NCC(C)(C)N2CCOCC2)no1`, for which, in the assay with Escherichia coli, the AC50 was 33.9 µM (active).

`CCCn1c(=O)nc(NCCc2ccccc2)[nH]c1=O`: the IC50 is > 100 µM (inactive) in [1], > 100 µM (inactive) in assay [2], > 100 µM (not active) in [3] and > 100 µM (not active) in assay [4].

Usually EC50 stands for the concentration needed to bring the measured effect to its halfway point. Take `COc1ccc(C2Nc3ccccc3C(=O)N2c2ccc(F)cc2)cc1CSc1ccccn1` (stereo unspecified): the EC50 is > 30.8 µM (inactive) in assay [5], > 92.4 µM (inactive) in assay [6] and > 92.4 µM (inactive) at Mu-type opioid receptor. In addition, in assay [7], the AC50 was 48.8 µM (active).

With `CCCCN1C(=O)C(NC(C)=O)c2cc(Br)ccc21` (stereo unspecified), the IC50 on Hexokinase HKDC1 was > 80 µM (inactive); in assay [8], > 43.8 µM (not active); in assay [9] it was > 43.8 µM (not active); on Hexokinase-1, > 80 µM (inactive).

As to `CCOC(=O)c1c(C)[nH]c(C(=O)OC/C(O)=C(\C#N)c2nc3ccccc3[nH]2)c1C`, the EC50 (in [5]; in assay [6]; at Mu-type opioid receptor) was > 92.5 µM (inactive) throughout.

With `CC1CC(OC(=O)c2ccccc2O)CC(C)(C)C1` (stereo unspecified) [HOMOSALATE], the AC50 in assay [10] is 6.31 µM (inconclusive).
